How the values were obtained:
[1] = molecular target: human BRD4 second bromodomain (BDII_E352-M457) (Homo sapiens (Human), UniProt O60885); assay: TR-FRET bromodomain binding assay, BRD4 second bromodomain
[2] = system: LPS induced IL-6 production; assay: LPS (lipopolysaccharide) induced IL-6 production mouse assay; assay type: in vivo; details: Mus musculus, read-out: Inhibition of LPS induced IL-6 production in Mice, % inhibition at 3 mg/kg; 3 mg/kg oral, 1 h before LPS; serum IL-6 2 h after LPS
[3] = system: breast cancer cell line MX-1; assay: MX-1 cell line proliferation assay; assay type: cell-based, human; details: Homo sapiens, MX1, 72 h; MX-1 cells, 3-day proliferation, Cell Titer Glo; read-out: Cellular proliferation: EC50
[4] = molecular target: human BRD4 first bromodomain (BDI_K57-E168) (Homo sapiens (Human), UniProt O60885); assay: TR-FRET bromodomain binding assay, BRD4 first bromodomain
[5] = Rat liver microsome stability assay; assay type: in vitro ADME; details: rat liver microsomes (male Sprague-Dawley), 0.5 μM test compound, 0.25 mg/mL microsomal protein, pH 7.4, 37° C.; read-out: Stability in rat liver microsomes (t1/2 in minutes)
[6] = Human liver microsome stability assay; assay type: in vitro ADME; details: both sexes, human, microsomes, pH 7.4
[7] = Mouse liver microsome stability assay; assay type: in vitro ADME; details: male, CD1, mouse, microsomes, pH 7.4

SMILES | Ki [1] [µM] | inhibition in vivo at 3 mg/kg [2] [%] | EC50 [3] [µM] | Ki [4] [µM] | half-life at 0.5 μM [5] [min] | half-life at 0.5 μM [6] [min] | half-life at 0.5 μM [7] [min]
Cn1cc(-c2cc(S(C)(=O)=O)ccc2NC2CCOC2)c2cc[nH]c2c1=O (stereo not drawn) [Example 167, 6-methyl-4-[5-(methylsulfonyl)-2-(tetrahydrofuran-3-ylamino)phenyl]-1,6-dihydro-7H-pyrrolo[2,3-c]pyridin-7-one] | 0.0122 | 64 | 0.043 | 0.0065 | – | – | –
Cn1cc(-c2cc(-c3ccc(N)nc3)ccc2OCC2CC2)c2cc[nH]c2c1=O [Example 326, 4-[5-(6-aminopyridin-3-yl)-2-(cyclopropylmethoxy)phenyl]-6-methyl-1,6-dihydro-7H-pyrrolo[2,3-c]pyridin-7-one] | 0.272 | – | 0.286 | 0.145 | 5 | 112 | 27
Cn1cc(-c2cc(S(=O)(=O)Nc3ccccc3)ccc2OCC2CC2)c2cc[nH]c2c1=O [Example 313, 4-(cyclopropylmethoxy)-3-(6-methyl-7-oxo-6,7-dihydro-1H-pyrrolo[2,3-c]pyridin-4-yl)-N-phenylbenzenesulfonamide] | 0.0061 | – | 0.0509 | 0.0158 | 4 | 5 | 3
CC(C)S(=O)(=O)c1ccc(NCC2CC2)c(-c2cn(C)c(=O)c3[nH]ccc23)c1 [Example 261, 4-{2-[(cyclopropylmethyl)amino]-5-(propan-2-ylsulfonyl)phenyl}-6-methyl-1,6-dihydro-7H-pyrrolo[2,3-c]pyridin-7-one] | 0.0016 | – | 0.0072 | 0.0015 | 5 | 25 | 16
Cc1ccc(S(=O)(=O)n2ccc3c(-c4cc(NS(C)(=O)=O)ccc4Oc4ccccc4)cn(C)c(=O)c32)cc1 [Example 7, N-(3-{6-methyl-1-[(4-methylphenyl)sulfonyl]-7-oxo-6,7-dihydro-1H-pyrrolo[2,3-c]pyridin-4-yl}-4-phenoxyphenyl)methanesulfonamide] | 0.0773 | – | > 3 | 0.119 | 2 | 12 | 4
CCS(=O)(=O)Nc1ccc(OCc2ccnn2C)c(-c2cn(C)c(=O)c3[nH]ccc23)c1 [Example 142, N-{3-(6-methyl-7-oxo-6,7-dihydro-1H-pyrrolo[2,3-c]pyridin-4-yl)-4-[(1-methyl-1H-pyrazol-5-yl)methoxy]phenyl}ethanesulfonamide] | 0.0794 | – | 0.138 | 0.0065 | 35 | 112 | 32
Cn1cc(-c2cc(S(C)(=O)=O)ccc2Oc2ccc(F)cc2F)c2cc(C(=O)N3CCOCC3)[nH]c2c1=O [Example 255, 4-[2-(2,4-difluorophenoxy)-5-(methylsulfonyl)phenyl]-6-methyl-2-(morpholin-4-ylcarbonyl)-1,6-dihydro-7H-pyrrolo[2,3-c]pyridin-7-one] | 0.154 | – | 0.265 | 0.0105 | > 120 | 70 | > 120
CCCS(=O)(=O)Nc1ccc(OC2CCOCC2)c(-c2cn(C)c(=O)c3[nH]ccc23)c1 [Example 99, N-[3-(6-methyl-7-oxo-6,7-dihydro-1H-pyrrolo[2,3-c]pyridin-4-yl)-4-(tetrahydro-2H-pyran-4-yloxy)phenyl]propane-1-sulfonamide] | 0.0247 | – | 0.0977 | 0.0035 | 22 | > 120 | 35
Cn1cc(-c2cc(NS(C)(=O)=O)cc(Cl)c2Oc2ccccc2)c2cc[nH]c2c1=O [Example 28, N-[3-chloro-5-(6-methyl-7-oxo-6,7-dihydro-1H-pyrrolo[2,3-c]pyridin-4-yl)-4-phenoxyphenyl]methanesulfonamide] | – | 52 | 0.0239 | – | 9 | 21 | –
CCS(=O)(=O)c1ccc(Oc2cccc(CO)c2)c(-c2cn(C)c(=O)c3[nH]ccc23)c1 [Example 317, 4-{5-(ethylsulfonyl)-2-[3-(hydroxymethyl)phenoxy]phenyl}-6-methyl-1,6-dihydro-7H-pyrrolo[2,3-c]pyridin-7-one] | 0.0036 | – | 0.0168 | 0.0067 | 115 | 88 | 83
Cn1cc(-c2cc(S(C)(=O)=O)ccc2Oc2ccc(F)cc2F)c2cc(CNc3nccs3)[nH]c2c1=O [Example 283, 4-[2-(2,4-difluorophenoxy)-5-(methylsulfonyl)phenyl]-6-methyl-2-[(1,3-thiazol-2-ylamino)methyl]-1,6-dihydro-7H-pyrrolo[2,3-c]pyridin-7-one] | 0.0346 | – | 0.138 | 0.0189 | 22 | 7 | 12
CCCS(=O)(=O)Nc1ccc(Oc2c(F)cc(F)cc2F)c(-c2cn(C)c(=O)c3[nH]ccc23)c1 [Example 94, N-[3-(6-methyl-7-oxo-6,7-dihydro-1H-pyrrolo[2,3-c]pyridin-4-yl)-4-(2,4,6-trifluorophenoxy)phenyl]propane-1-sulfonamide] | 0.01 | – | 0.11 | 0.0162 | 28 | 47 | 25
Cn1cc(-c2cc(S(C)(=O)=O)ccc2Oc2ccc(F)cc2F)c2cc(C(=O)NCC(F)(F)F)[nH]c2c1=O [Example 254, 4-[2-(2,4-difluorophenoxy)-5-(methylsulfonyl)phenyl]-6-methyl-7-oxo-N-(2,2,2-trifluoroethyl)-6,7-dihydro-1H-pyrrolo[2,3-c]pyridine-2-carboxamide] | 0.0087 | – | 0.0751 | 0.0796 | > 120 | 74 | 91
Cn1cc(-c2cc(NS(C)(=O)=O)ccc2OC2CCCOC2)c2cc[nH]c2c1=O (stereo not drawn) [Example 60, N-[3-(6-methyl-7-oxo-6,7-dihydro-1H-pyrrolo[2,3-c]pyridin-4-yl)-4-(tetrahydro-2H-pyran-3-yloxy)phenyl]methanesulfonamide] | 0.0066 | – | 0.0142 | 0.00075 | 64 | 68 | 34
Cn1cc(-c2cc(S(=O)(=O)c3ccccc3)ccc2OCC2CC2)c2cc[nH]c2c1=O [Example 285, 4-[2-(cyclopropylmethoxy)-5-(phenylsulfonyl)phenyl]-6-methyl-1,6-dihydro-7H-pyrrolo[2,3-c]pyridin-7-one] | 0.0075 | – | 0.111 | 0.0108 | 10 | 19 | 12
CC(=O)Nc1ccc(Oc2ccccc2)c(-c2cn(C)c(=O)c3[nH]ccc23)c1 [Example 6, N-[3-(6-methyl-7-oxo-6,7-dihydro-1H-pyrrolo[2,3-c]pyridin-4-yl)-4-phenoxyphenyl]acetamide] | 0.0058 | – | 0.046 | 0.0053 | 7 | 30 | 3
Cn1cc(-c2cc(S(C)(=O)=O)ccc2OC2C3CC4CC(C3)CC2C4)c2cc[nH]c2c1=O (stereo not drawn) [Example 237, 6-methyl-4-{5-(methylsulfonyl)-2-[tricyclo[3.3.1.1^3,7]dec-2-yloxy]phenyl}-1,6-dihydro-7H-pyrrolo[2,3-c]pyridin-7-one] | 0.0035 | – | 0.035 | 0.003 | 7 | 3 | 2
CN(C)CCS(=O)(=O)Nc1ccc(Oc2ccc(F)cc2F)c(-c2cn(C)c(=O)c3[nH]ccc23)c1 [Example 300, N-[4-(2,4-difluorophenoxy)-3-(6-methyl-7-oxo-6,7-dihydro-1H-pyrrolo[2,3-c]pyridin-4-yl)phenyl]-2-(dimethylamino)ethanesulfonamide] | 0.19 | – | 0.176 | 0.389 | 21 | 30 | 17
Cn1cc(-c2ccc(OCC3CC3)c(-c3cn(C)c(=O)c4[nH]ccc34)c2)cn1 [Example 318, 4-[2-(cyclopropylmethoxy)-5-(1-methyl-1H-pyrazol-4-yl)phenyl]-6-methyl-1,6-dihydro-7H-pyrrolo[2,3-c]pyridin-7-one] | 0.625 | – | > 3 | 0.346 | 24 | 35 | 13
CCS(=O)(=O)Nc1ccc(OC2CCOCC2)c(-c2cn(C)c(=O)c3[nH]ccc23)c1 [Example 109, N-[3-(6-methyl-7-oxo-6,7-dihydro-1H-pyrrolo[2,3-c]pyridin-4-yl)-4-(tetrahydro-2H-pyran-4-yloxy)phenyl]ethanesulfonamide] | 0.0034 | – | 0.032 | 0.00072 | 61 | 71 | > 120
CNS(=O)(=O)c1cnc(OC2CCOC2)c(-c2cn(C)c(=O)c3[nH]ccc23)c1 (stereo not drawn) [Example 87, N-methyl-5-(6-methyl-7-oxo-6,7-dihydro-1H-pyrrolo[2,3-c]pyridin-4-yl)-6-(tetrahydrofuran-3-yloxy)pyridine-3-sulfonamide] | – | 57 | 0.0534 | – | 23 | > 120 | –

Source: patent US9296741B2, “Bromodomain inhibitors” (priority 2012, dated 2016)
